Experimental data from patent publication US9765105B2, “Macrolide compound” (Pulike Biological Engineering, Inc., priority 2013, dated 2017).

Columns and labels:
Assay in all cases: in vitro susceptibility, MIC by mini broth dilution
Type in all cases: cell-based
[1] = test system: Pasteurella multocida CVCC399; settings: strain CVCC399
Method in brief: (§1)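 Bacteria were revived from −20° C stocks and streaked twice on solid medium, each time grown 20 h at 35° C. Compounds were double-diluted in DMSO across 11 wells and tested in two parallel rows. The bacterial suspension was diluted 1:200 with liquid medium before MIC determination by mini broth dilution.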

[2] = test system: Actinobacillus pleuropneumoniae CVCC262; settings: strain CVCC262
Method in brief: as §1

[3] = test system: Streptococcus equines CVCC556; settings: strain CVCC556
Method in brief: as §1

[4] = test system: Haemophilus parasuis
Method in brief: as §1

[5] = test system: Staphylococcus aureus CVCC26003; settings: strain CVCC26003
Method in brief: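 MICs were determined by mini broth dilution under NCCLS standards in CAMHB, using revived S. aureus CVCC26003 subcultured 20 h at 35° C. Compounds were two-fold serially diluted in DMSO across 11 wells, with duplicate rows. Bacterial suspension was diluted 1:200 in medium before inoculation.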

MIC values, Pasteurella multocida CVCC399 [1] [ug/mi] | MIC values, Actinobacillus pleuropneumoniae CVCC262 [2] [ug/mi] | MIC values, Streptococcus equines CVCC556 [3] [ug/mi] | MIC values, Haemophilus parasuis [4] [ug/mi] | MIC values, Staphylococcus aureus CVCC26003 [5] [ug/mi] | SMILES
1 | 0.5 | 0.25 | 0.5 | 0.5 | CCCN1C[C@H](C)[C@@H](O)[C@](C)(O)[C@@H](CC)OC(=O)[C@H](C)[C@@H](O[C@H]2C[C@@](C)(OC)[C@](O)(CNCCCN3CCOCC3)[C@H](C)O2)[C@H](C)[C@@H](O[C@@H]2O[C@H](C)C[C@H](N(C)C)[C@H]2O)[C@](C)(O)C[C@H]1C [syzx-188]
1 | 0.5 | 0.25 | 0.25 | 0.25 | CCCN1CC(C)C(O)C(C)(O)C(CC)OC(=O)C(C)C(OC2CC(C)(OC)C(O)(CNCCN3CCCC3)C(C)O2)C(C)C(OC2OC(C)CC(N(C)C)C2O)C(C)(O)CC1C (stereo not drawn) [syzx-190]
4 | 0.5 | 0.5 | 0.5 | 1 | CCCN1C[C@H](C)[C@@H](O)[C@](C)(O)[C@@H](CC)OC(=O)[C@H](C)[C@@H](O[C@H]2C[C@@](C)(OC)[C@](O)(CNCCc3ccncc3)[C@H](C)O2)[C@H](C)[C@@H](O[C@@H]2O[C@H](C)C[C@H](N(C)C)[C@H]2O)[C@](C)(O)C[C@H]1C [syzx-191]
4 | 4 | 0.5 | 4 | 4 | CCCN1C[C@H](C)[C@@H](O)[C@](C)(O)[C@@H](CC)OC(=O)[C@H](C)[C@@H](O[C@H]2C[C@@](C)(OC)[C@](O)(CNCc3ccccc3F)[C@H](C)O2)[C@H](C)[C@@H](O[C@@H]2O[C@H](C)C[C@H](N(C)C)[C@H]2O)[C@](C)(O)C[C@H]1C [syzx-192]
2 | 4 | 0.25 | 2 | 4 | CCCN1C[C@H](C)[C@@H](O)[C@](C)(O)[C@@H](CC)OC(=O)[C@H](C)[C@@H](O[C@H]2C[C@@](C)(OC)[C@](O)(CNCC3CCNCC3)[C@H](C)O2)[C@H](C)[C@@H](O[C@@H]2O[C@H](C)C[C@H](N(C)C)[C@H]2O)[C@](C)(O)C[C@H]1C [syzx-193]
1 | 0.5 | 0.25 | 0.25 | 0.25 | CCCN1C[C@H](C)[C@@H](O)[C@](C)(O)[C@@H](CC)OC(=O)[C@H](C)[C@@H](O[C@H]2C[C@@](C)(OC)[C@](O)(CNc3ccc(Cl)cc3C)[C@H](C)O2)[C@H](C)[C@@H](O[C@@H]2O[C@H](C)C[C@H](N(C)C)[C@H]2O)[C@](C)(O)C[C@H]1C [syzx-197]
4 | 0.5 | 0.5 | 0.5 | 1 | CCCCN(C)C[C@]1(O)[C@H](C)O[C@@H](O[C@H]2[C@H](C)[C@@H](O[C@@H]3O[C@H](C)C[C@H](N(C)C)[C@H]3O)[C@](C)(O)C[C@@H](C)N(CCC)C[C@H](C)[C@@H](O)[C@](C)(O)[C@@H](CC)OC(=O)[C@@H]2C)C[C@@]1(C)OC [syzx-198]
2 | 2 | 0.25 | 4 | 2 | CCCN1C[C@H](C)[C@@H](O)[C@](C)(O)[C@@H](CC)OC(=O)[C@H](C)[C@@H](O[C@H]2C[C@@](C)(OC)[C@](O)(CNc3nc(Cl)cc(Cl)n3)[C@H](C)O2)[C@H](C)[C@@H](O[C@@H]2O[C@H](C)C[C@H](N(C)C)[C@H]2O)[C@](C)(O)C[C@H]1C [syzx-202]
0.25 | 1 | 1 | 0.5 | 1 | CCCN1C[C@H](C)[C@@H](O)[C@](C)(O)[C@@H](CC)OC(=O)[C@H](C)[C@@H](O[C@H]2C[C@@](C)(OC)[C@](O)(CNC3CCCCCC3)[C@H](C)O2)[C@H](C)[C@@H](O[C@@H]2O[C@H](C)C[C@H](N(C)C)[C@H]2O)[C@](C)(O)C[C@H]1C [syzx-203]
4 | 4 | 0.5 | 4 | 4 | CCCN1C[C@H](C)[C@@H](O)[C@](C)(O)[C@@H](CC)OC(=O)[C@H](C)[C@@H](O[C@H]2C[C@@](C)(OC)[C@](O)(CN3CCOCC3)[C@H](C)O2)[C@H](C)[C@@H](O[C@@H]2O[C@H](C)C[C@H](N(C)C)[C@H]2O)[C@](C)(O)C[C@H]1C [syzx-204]
4 | 4 | 0.5 | 4 | 4 | CCCN1C[C@H](C)[C@@H](O)[C@](C)(O)[C@@H](CC)OC(=O)[C@H](C)[C@@H](O[C@H]2C[C@@](C)(OC)[C@](O)(CNCCCC(OC)OC)[C@H](C)O2)[C@H](C)[C@@H](O[C@@H]2O[C@H](C)C[C@H](N(C)C)[C@H]2O)[C@](C)(O)C[C@H]1C [syzx-205]
0.5 | 0.25 | 0.25 | 0.25 | 0.5 | CCCN1C[C@H](C)[C@@H](O)[C@](C)(O)[C@@H](CC)OC(=O)[C@H](C)[C@@H](O[C@H]2C[C@@](C)(OC)[C@](O)(CNN3CCCCC3)[C@H](C)O2)[C@H](C)[C@@H](O[C@@H]2O[C@H](C)C[C@H](N(C)C)[C@H]2O)[C@](C)(O)C[C@H]1C [syzx-206]
4 | 4 | 0.5 | 4 | 4 | CCCN1C[C@H](C)[C@@H](O)[C@](C)(O)[C@@H](CC)OC(=O)[C@H](C)[C@@H](O[C@H]2C[C@@](C)(OC)[C@](O)(CNc3ccc(Cl)nc3)[C@H](C)O2)[C@H](C)[C@@H](O[C@@H]2O[C@H](C)C[C@H](N(C)C)[C@H]2O)[C@](C)(O)C[C@H]1C [syzx-208]
0.25 | 0.25 | 0.25 | 0.25 | 0.25 | CCCN1C[C@H](C)[C@@H](O)[C@](C)(O)[C@@H](CC)OC(=O)[C@H](C)[C@@H](O[C@H]2C[C@@](C)(OC)[C@](O)(CN3CCCC3)[C@H](C)O2)[C@H](C)[C@@H](O[C@@H]2O[C@H](C)C[C@H](N(C)C)[C@H]2O)[C@](C)(O)C[C@H]1C [syzx-209]
4 | 0.5 | 0.25 | 0.5 | 2 | CCCN1CC(C)C(O)C(C)(O)C(CC)OC(=O)C(C)C(OC2CC(C)(OC)C(O)(CNc3n[nH]c(S)n3)C(C)O2)C(C)C(OC2OC(C)CC(N(C)C)C2O)C(C)(O)CC1C (stereo not drawn) [syzx-210]
8 | 4 | 0.5 | 4 | 2 | CCCN1C[C@H](C)[C@@H](O)[C@](C)(O)[C@@H](CC)OC(=O)[C@H](C)[C@@H](O[C@H]2C[C@@](C)(OC)[C@](O)(CNc3ccc(Cl)cn3)[C@H](C)O2)[C@H](C)[C@@H](O[C@@H]2O[C@H](C)C[C@H](N(C)C)[C@H]2O)[C@](C)(O)C[C@H]1C [syzx-211]
8 | 2 | 0.25 | 2 | 4 | C=CCN(CC=C)C[C@]1(O)[C@H](C)O[C@@H](O[C@H]2[C@H](C)[C@@H](O[C@@H]3O[C@H](C)C[C@H](N(C)C)[C@H]3O)[C@](C)(O)C[C@@H](C)N(CCC)C[C@H](C)[C@@H](O)[C@](C)(O)[C@@H](CC)OC(=O)[C@@H]2C)C[C@@]1(C)OC [syzx-214]
0.5 | 0.25 | 0.25 | 0.25 | 0.25 | CCCN1C[C@H](C)[C@@H](O)[C@](C)(O)[C@@H](CC)OC(=O)[C@H](C)[C@@H](O[C@H]2C[C@@](C)(OC)[C@](O)(CNC(=O)C(F)(F)F)[C@H](C)O2)[C@H](C)[C@@H](O[C@@H]2O[C@H](C)C[C@H](N(C)C)[C@H]2O)[C@](C)(O)C[C@H]1C [syzx-215]
